Measurements reported in PubChem BioAssay AID1963849 (Molecular Pharmacology Branch, DTP, NCI, 2024).

Tested on: 299254-011-R-J1-PDC complex spheroid viability
Test: Anticancer human tumor 299254-011-R-J1-PDC patient-derived melanoma cell line growth inhibition [POLQ]
Details: for IC50: curve of first compound; for viability, T/C: stronger effect = lower value; active = viability on the fitted dose curve at most 10% of control; inactive = the rest
In short: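 Complex spheroid viability model combining PDC tumour cells with endothelial (HUVEC) and MSC stromal cells. Novobiocin, ART-558 or RP6685 were tested singly and in combination with standard and investigational anticancer drugs. Each was titrated in half-log steps from near clinical Cmax, or from 10 microM where Cmax was unknown.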
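Also: spheroids exposed to drugs for one week before measurement.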
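For viability, T/C in this document: percent viability relative to DMSO vehicle control taken as 100%.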

CC(=O)O[C@H]1C(=O)[C@@]2(C)[C@H]([C@H](OC(=O)c3ccccc3)[C@]3(O)C[C@H](OC(=O)[C@H](O)[C@@H](NC(=O)c4ccccc4)c4ccccc4)C(C)=C1C3(C)C)[C@]1(OC(C)=O)CO[C@@H]1C[C@@H]2O + Cc1cccc(N(C)C(=O)C2C(O)CCN2c2nc(C)cc(C(F)(F)F)c2C#N)c1
26.8 nM: IC50 (second compound 3.16 µM)
73.4 nM: IC50 (second compound 1 µM)
inactive: viability, T/C (second compound 0.0316 µM, first compound 0.00949 µM) 99.2% | viability, T/C (second compound 0.0316 µM, first compound 0.03 µM) 79.7% | viability, T/C (second compound 0.0316 µM, first compound 0.0949 µM) 55.1% | viability, T/C (second compound 0.0316 µM, first compound 0.3 µM) 35.7% | viability, T/C (second compound 0.0316 µM, first compound 0.949 µM) 22% | viability, T/C (second compound 0.0316 µM, first compound 3 µM) 24.4% | viability, T/C (second compound 0.1 µM, first compound 0.00949 µM) 84.3% | viability, T/C (second compound 0.1 µM, first compound 0.03 µM) 70.7% | viability, T/C (second compound 0.1 µM, first compound 0.0949 µM) 49.6% | viability, T/C (second compound 0.1 µM, first compound 0.3 µM) 31.3% | viability, T/C (second compound 0.1 µM, first compound 0.949 µM) 23.2% | viability, T/C (second compound 0.1 µM, first compound 3 µM) 20.7% | viability, T/C (second compound 0.316 µM, first compound 0.00949 µM) 90.2% | viability, T/C (second compound 0.316 µM, first compound 0.03 µM) 68.6% | viability, T/C (second compound 0.316 µM, first compound 0.0949 µM) 41.7% | viability, T/C (second compound 0.316 µM, first compound 0.3 µM) 33.1% | viability, T/C (second compound 0.316 µM, first compound 0.949 µM) 29.8% | viability, T/C (second compound 0.316 µM, first compound 3 µM) 23.4% | viability, T/C (second compound 1 µM, first compound 0.00949 µM) 84.9% | viability, T/C (second compound 1 µM, first compound 0.03 µM) 69.2% | viability, T/C (second compound 1 µM, first compound 0.0949 µM) 43.4% | viability, T/C (second compound 1 µM, first compound 0.3 µM) 31.6% | viability, T/C (second compound 1 µM, first compound 0.949 µM) 21.3% | viability, T/C (second compound 1 µM, first compound 3 µM) 23.2% | viability, T/C (second compound 3.16 µM, first compound 0.00949 µM) 68.5% | viability, T/C (second compound 3.16 µM, first compound 0.03 µM) 48% | viability, T/C (second compound 3.16 µM, first compound 0.0949 µM) 33.8% | viability, T/C (second compound 3.16 µM, first compound 0.3 µM) 27.5% | viability, T/C (second compound 3.16 µM, first compound 0.949 µM) 21.7% | viability, T/C (second compound 3.16 µM, first compound 3 µM) 21.4% | viability, T/C (second compound 10 µM, first compound 0.00949 µM) 49% | viability, T/C (second compound 10 µM, first compound 0.03 µM) 31.2% | viability, T/C (second compound 10 µM, first compound 0.0949 µM) 20.4% | viability, T/C (second compound 10 µM, first compound 0.3 µM) 23.2% | viability, T/C (second compound 10 µM, first compound 0.949 µM) 22.7% | viability, T/C (second compound 10 µM, first compound 3 µM) 19.6%
< 9.49 nM: IC50 (second compound 10 µM)
123 nM: IC50 (second compound 0.0316 µM)
91.7 nM: IC50 (second compound 0.1 µM)
69.8 nM: IC50 (second compound 0.316 µM)
